From US4835160A, “Derivatives of pyridoindole, having anti-tumor properties” (Sanofi, priority 1986, dated 1989)

Legend:
[1] = test system: reticulosarcoma M5-M5076; assay: Test for reticulosarcoma M5-M5076; type: in vivo, BDF1 hybrid mice; conditions: D1,5,9,13,17; for Number of survivors: day D75; for T/C %: survival time
Method: (§1) The antitumour activity was tested in vivo on various tumours inoculated in various ways according to the following general protocol:
(§2) All the male or female mice are inoculated on day D0 with a known quantity of viable tumour cells for ascitic tumours or with a known tumour fragment for solid tumours.
(§3) They are then distributed into various groups. Each group, corresponding to the animals treated by the product under test, is made up of 10 mice. The product under test is dissolved in distilled water and it is administered n times (Dx-Dy), n, y, and x varying according to the protocol chosen, at the rate of 0.1 ml of solution per 10 g by weight of mice treated and at specific doses for each protocol.
(§4) The "negative control" group, corresponding to the animals which are not treated by the product, contains 2√N animals, N being equal to or greater than the total number of mice treated by the product in the same experiment.
(§5) Finally, the tests can also be carried out at the same time as the study of a group called "positive control", of ten animals, which is treated by a molecule, known for its antitumour activity and which can vary according to the protocol chosen, in the same conditions as the groups treated by the product under test.
(§6) The antitumour activity is evaluated, in the case of ascitic tumours, by considering the increase in the survival time of the animals treated in comparison to that of the animals in the "negative control" group, according to the formula: [formula]
(§7) Also, a product is considered as toxic at the dose studied when this T/C value is equal to or less than 85%. In addition, a product is also considered as toxic at the dose studied when the weight variation, expressed in grams and calculated by the formula: […]
The tests are carried out with BDF1 hybrid mice inoculated by intraperitoneal route with 10^6 cells of the M5-M5076 line. The compound under test is administered 5 times successively in sequence (D1,5,9,13,17) by intraperitoneal route. The positive control for the test is cyclophosphamide administered in the same conditions. The number of surviving animals is evaluated on day D75.

[2] = test system: leukemia tumour line L 1210; assay: In vitro cytotoxic activity on leukemia tumour line L 1210; type: cell-based; conditions: Mus musculus, L1210, 48 h, L 1210, 48 hours contact, 37° C.; read-out: I D 50 (concentration which inhibits the proliferation of the cells by 50%)
Summary of the method: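 Exponentially growing L 1210 leukemia cells were exposed to increasing compound concentrations at 37 °C under CO2 and counted every 24 h. ID50, the concentration inhibiting proliferation by 50%, was calculated after 48 h contact.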

[3] = test system: leukemia L 1210; assay: Test for leukemia L 1210, IP/IP, D1-D5; type: in vivo, CDF1 hybrid mice; conditions: for Number of survivors: day D60; for T/C %: survival time
Method: as §1, §2, §3, §4, §5, §6, §7
(c) Test for leukemia L 1210, IP/IP, D-5 (GERAN et al., Cancer cheomother.,1972, 2, 07-57).
(§8) The tests are carried out with CDF1 hybrid mice inoculated by intraperitoneal route with 10^5 leukemia cells from the L 1210 line. The compound under test is administered for 5 days (D1-D5) by intraperitoneal route. The positive control for the test is 5-fluorouracile administered in the same conditions. The number of surviving animals is evaluated on day D60.

[4] = test system: leukemia L 1210; assay: Test for leukemia L 1210 IP/D1 IV; type: in vivo, CDF1 hybrid mice; conditions: 20 mg/kg IV
Method: as §1, §2, §3, §4, §5, §6, §7, §8
(g) Test for leukemia L 1210 IP/D1 IV. (GERAN et al., Cancer Chemother., 1972, 2, 07-57).
The test is carried out according to the same protocol as that described for test (c), the compound under test being administered by intravenous route only on day D1.

CCN(CC)CCCNc1ncc(C)c2[nH]c3ccc(O)cc3c12 [Derivative No. 7, 1-(diethylaminopropylamino)-8-hydroxy-4-methyl-5H-pyrido[4,3-b]indole]
Median day of survival ([1]; 2.5 mg/kg IP): 31.25 days | Variation by weight ([1]; 2.5 mg/kg IP): -1.0 g | Number of survivors ([1]; 2.5 mg/kg IP): 0/10 | T/C % ([1]; 2.5 mg/kg IP): 120% | Median day of survival ([1]; 5 mg/kg IP): 33.0 days | Variation by weight ([1]; 5 mg/kg IP): -1.4 g | Number of survivors ([1]; 5 mg/kg IP): 1/10 | T/C % ([1]; 5 mg/kg IP): 127% | Median day of survival ([1]; 10 mg/kg IP): 37.25 days | Variation by weight ([1]; 10 mg/kg IP): -1.8 g | Number of survivors ([1]; 10 mg/kg IP): 0/10 | T/C % ([1]; 10 mg/kg IP): 143% | Median day of survival ([1]; 20 mg/kg IP): 41.0 days | Variation by weight ([1]; 20 mg/kg IP): -1.9 g | Number of survivors ([1]; 20 mg/kg IP): 0/10 | T/C % ([1]; 20 mg/kg IP): 158% | Median day of survival ([1]; 40 mg/kg IP): 42.0 days | Variation by weight ([1]; 40 mg/kg IP): -1.8 g | Number of survivors ([1]; 40 mg/kg IP): 1/10 | T/C % ([1]; 40 mg/kg IP): 161% | IC50 [2]: 60 nM | Median day of survival ([3]; 0.625 mg/kg IP): 11.75 days | Variation by weight ([3]; 0.625 mg/kg IP): -0.9 g | Number of survivors ([3]; 0.625 mg/kg IP): 0/10 | T/C % ([3]; 0.625 mg/kg IP): 133% | Median day of survival ([3]; 1.25 mg/kg IP): 14.25 days | Variation by weight ([3]; 1.25 mg/kg IP): -1.2 g | Number of survivors ([3]; 1.25 mg/kg IP): 0/10 | T/C % ([3]; 1.25 mg/kg IP): 162% | Median day of survival ([3]; 2.5 mg/kg IP): 20.75 days | Variation by weight ([3]; 2.5 mg/kg IP): -1.1 g | Number of survivors ([3]; 2.5 mg/kg IP): 4/10 | T/C % ([3]; 2.5 mg/kg IP): 236% | Median day of survival ([3]; 5 mg/kg IP): 14.0 days | Variation by weight ([3]; 5 mg/kg IP): -0.8 g | Number of survivors ([3]; 5 mg/kg IP): 2/10 | T/C % ([3]; 5 mg/kg IP): 159% | Median day of survival ([3]; 10 mg/kg IP): 37.0 days | Variation by weight ([3]; 10 mg/kg IP): -2.2 g | Number of survivors ([3]; 10 mg/kg IP): 5/10 | T/C % ([3]; 10 mg/kg IP): 420% | Median day of survival ([3]; 20 mg/kg IP): 35.0 days | Variation by weight ([3]; 20 mg/kg IP): -4.2 g | Number of survivors ([3]; 20 mg/kg IP): 5/10 | T/C % ([3]; 20 mg/kg IP): 398% | Median day of survival ([3]; 30 mg/kg IP): 8.25 days | Variation by weight ([3]; 30 mg/kg IP): -5.6 g | Number of survivors ([3]; 30 mg/kg IP): 0/10 | T/C % ([3]; 30 mg/kg IP): 94%

Cc1cnc(NCCCN(C)C)c2c1[nH]c1ccc(O)cc12 [Derivative No. 10, 1-(3-dimethylaminopropylamino)-8-hydroxy-4-methyl-5H-pyrido[4,3-b]indole]
Median day of survival ([1]; 1.25 mg/kg IP): 34.0 days | Variation by weight (g) ([1]; 1.25 mg/kg IP): +2.7 g | Number of survivors ([1]; 1.25 mg/kg IP): 1/10 | T/C % ([1]; 1.25 mg/kg IP): 133% | Median day of survival ([1]; 2.5 mg/kg IP): 33.0 days | Variation by weight (g) ([1]; 2.5 mg/kg IP): +0.4 g | Number of survivors ([1]; 2.5 mg/kg IP): 1/10 | T/C % ([1]; 2.5 mg/kg IP): 129% | Median day of survival ([1]; 5 mg/kg IP): 40.0 days | Variation by weight (g) ([1]; 5 mg/kg IP): +2.1 g | Number of survivors ([1]; 5 mg/kg IP): 1/10 | T/C % ([1]; 5 mg/kg IP): 156% | Median day of survival ([1]; 10 mg/kg IP): 42.0 days | Variation by weight (g) ([1]; 10 mg/kg IP): +1.2 g | Number of survivors ([1]; 10 mg/kg IP): 1/10 | T/C % ([1]; 10 mg/kg IP): 164% | Median day of survival ([1]; 20 mg/kg IP): 44.75 days | Variation by weight ([1]; 20 mg/kg IP): 0.0 g | Number of survivors ([1]; 20 mg/kg IP): 1/10 | T/C % ([1]; 20 mg/kg IP): 175% | Median day of survival ([1]; 40 mg/kg IP): 46.0 days | Variation by weight ([1]; 40 mg/kg IP): -2.8 g | Number of survivors ([1]; 40 mg/kg IP): 2/10 | T/C % ([1]; 40 mg/kg IP): 180% | Median day of survival ([3]; 1.25 mg/kg IP): 12.75 days | Variation by weight ([3]; 1.25 mg/kg IP): -1.7 g | Number of survivors ([3]; 1.25 mg/kg IP): 1/10 | T/C % ([3]; 1.25 mg/kg IP): 145% | Median day of survival ([3]; 2.5 mg/kg IP): 20.0 days | Variation by weight ([3]; 2.5 mg/kg IP): -2.1 g | Number of survivors ([3]; 2.5 mg/kg IP): 4/10 | T/C % ([3]; 2.5 mg/kg IP): 227% | Median day of survival ([3]; 5 mg/kg IP): > 60 days | Variation by weight ([3]; 5 mg/kg IP): -2.7 g | Number of survivors ([3]; 5 mg/kg IP): 6/10 | T/C % ([3]; 5 mg/kg IP): > 682% | Median day of survival ([3]; 10 mg/kg IP): 15.25 days | Variation by weight ([3]; 10 mg/kg IP): -3.1 g | Number of survivors ([3]; 10 mg/kg IP): 4/10 | T/C % ([3]; 10 mg/kg IP): 173% | Median day of survival ([3]; 20 mg/kg IP): 8.4 days | Variation by weight ([3]; 20 mg/kg IP): -5.6 g | Number of survivors ([3]; 20 mg/kg IP): 0/10 | T/C % ([3]; 20 mg/kg IP): 95%

Cc1cnc(NCCCN(C)C)c2c3cc(O)ccc3n(C)c12 [Derivative No. 14, 4,5-dimethyl 1(3-dimethylaminopropylamino)-8-hydroxy-5H-pyrido[4,3-b]indole]
IC50 [2]: 14 nM | Median day of survival [4]: 14.0 days | Variation by weight [4]: -1.1 g | Number of survivors ([4]; day D60): 0/10 | T/C % ([4]; survival time): 157%
